Experimental data taken from ChEMBL document CHEMBL1201862, “PubChem BioAssay data set” (2004).
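Cultured in 96-well plates, cells were exposed to test compound for 48 hours across five concentrations. Abbreviation: GI50, concentration required for 50% inhibition of growth.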 Active and inactive are the calls of the source. No stated cut-off is given here; in the data, active = GI50 up to about 1.1 µM and inactive = higher.

Legend:
Assay in all cases: NCI anticancer screen, dose series, 48 h
[1] = test system: SN12C
[2] = test system: SK-MEL-28
[3] = test system: Malme-3M
[4] = test system: HT-29
[5] = test system: COLO 205
[6] = test system: UO-31
[7] = test system: EKVX
[8] = test system: UACC-257
[9] = test system: NCI-H226
[10] = test system: IGROV-1
[11] = test system: NCI-H23
[12] = test system: OVCAR-3
[13] = test system: A549
[14] = test system: 786-0
[15] = test system: NCI-H460
[16] = test system: K562
[17] = test system: MCF7
[18] = test system: NCI/ADR-RES
[19] = test system: MDA-MB-435

Measured: GI50

Cc1cc(-c2ccccc2)nc(Nc2nc3ccccc3o2)n1
inactive: [1] > 100 µM | [2] > 100 µM | [3] > 100 µM | [4] > 100 µM | [5] > 100 µM | [6] > 100 µM | [7] > 100 µM | [8] > 100 µM | [9] > 100 µM | [10] > 100 µM | [11] > 100 µM | [12] > 100 µM | [13] > 100 µM | [14] > 100 µM | [15] > 100 µM | [16] > 100 µM

Nc1ccccc1C(=O)/C=C/c1ccccc1O
inactive: [1] 55.2 µM | [2] > 100 µM | [3] > 100 µM | [4] > 100 µM | [5] > 100 µM | [6] 58.5 µM | [7] > 100 µM | [8] 15.1 µM | [9] > 100 µM | [10] > 100 µM | [11] 56 µM | [12] 31.4 µM | [13] 45.5 µM | [14] 57 µM | [15] 67.1 µM | [16] 29.8 µM

O=c1c2cc(Br)cc(Br)c2nc(CCCl)n1CCO
inactive: [1] 97.5 µM | [2] 52 µM | [3] 52.1 µM | [4] > 100 µM | [5] > 100 µM | [6] 34.7 µM | [7] 73.8 µM | [8] 72.9 µM | [9] 39 µM | [10] 75.9 µM | [11] 49.9 µM | [12] 52.2 µM | [13] > 100 µM | [14] > 100 µM | [15] > 100 µM | [16] 52.5 µM

Cc1cn(C2CC(N)C(C(=O)O)O2)c(=O)[nH]c1=O (stereo not given)
inactive: [1] > 100 µM | [3] > 100 µM | [4] > 100 µM | [5] > 100 µM | [6] > 100 µM | [7] > 100 µM | [8] > 100 µM | [9] > 100 µM | [10] > 100 µM | [11] > 100 µM | [17] > 100 µM | [12] > 100 µM | [13] > 100 µM | [18] > 100 µM | [14] > 100 µM | [15] > 100 µM | [19] > 100 µM | [16] > 100 µM

N=C(N)c1ccc(/N=N/c2c(O)ccc3cc(O)ccc23)cc1
inactive: [2] > 100 µM | [3] 56.2 µM | [4] > 100 µM | [5] > 100 µM | [6] > 100 µM | [7] > 100 µM | [8] > 100 µM | [9] > 100 µM | [10] > 100 µM | [17] > 100 µM | [12] > 100 µM | [13] > 100 µM | [18] > 100 µM | [14] > 100 µM | [15] > 100 µM | [19] > 100 µM | [16] > 100 µM

CCN(CC)c1c(C(C)(C)C)c(=O)n2ccsc2c1OC(C)=O
inactive: [1] 18.2 µM | [2] 17.1 µM | [3] 12.5 µM | [4] 14.8 µM | [5] 16.9 µM | [6] 17.9 µM | [7] 15.1 µM | [8] 16.5 µM | [9] 15.4 µM | [10] 16.8 µM | [11] 16.1 µM | [17] 15.6 µM | [12] 17.1 µM | [13] 15 µM | [18] 13 µM | [14] 19.9 µM | [15] 16.5 µM | [19] 18 µM | [16] 17.6 µM

CC(=O)O[C@H]1CCC2[C@@H]3CC[C@]4(C)CC(=O)C=C[C@]4(C)C3CC[C@@]21C (stereo not given in full)
inactive: [1] 24.2 µM | [2] 18.5 µM | [3] 19.4 µM | [4] 18.1 µM | [5] 17.2 µM | [6] 6.3 µM | [7] 27.5 µM | [8] 20.6 µM | [9] 25.2 µM | [10] 23.8 µM | [11] 21.9 µM | [12] 17.5 µM | [13] 18.3 µM | [18] 22 µM | [14] 34.4 µM | [15] 17.5 µM | [19] 40.6 µM | [16] 20.2 µM

CC1CCc2c(sc3ncnc(N/N=C/c4ccc(Cl)c(Cl)c4)c23)C1 (stereo not given)
inactive: [1] 19.4 µM | [2] 21.2 µM | [3] 31.2 µM | [4] 13.6 µM | [5] 6.17 µM | [6] 12.2 µM | [7] 25 µM | [8] 31 µM | [9] 16.4 µM | [10] 37.2 µM | [11] 13.2 µM | [12] 17 µM | [13] 4.13 µM | [14] 15.6 µM | [15] 7.4 µM | [16] 4.4 µM

CCN(CC)CCOc1ccc(/C=C(\C#N)c2ccc(OCCN(CC)CC)cc2)cc1
inactive: [1] 45.1 µM | [2] 16.5 µM | [3] 14.5 µM | [4] 1.43 µM | [5] 10.8 µM | [6] 14.7 µM | [7] > 51.2 µM | [8] 16.9 µM | [9] 39.4 µM | [10] 22.7 µM | [11] 17.3 µM | [12] 22.4 µM | [13] 19.1 µM | [14] 11.3 µM | [15] 18.1 µM | [16] 3.37 µM

CC(=O)OCCOCNC(=S)N/N=C/c1ccc(Br)s1
inactive: [1] > 100 µM | [2] > 100 µM | [3] > 100 µM | [4] > 100 µM | [5] > 100 µM | [6] > 100 µM | [7] > 36.2 µM | [8] > 100 µM | [9] > 100 µM | [10] > 100 µM | [11] > 100 µM | [12] > 89.1 µM | [13] > 88.7 µM | [14] > 76.6 µM | [15] 78.3 µM | [16] > 20.8 µM

CCCCCCCCCCCCCCCCOP(=O)(O)Oc1ccc(/C=C\c2ccc(OP(=O)(O)OCCCCCCCCCCCCCCCC)cc2)cc1
inactive: [1] > 100 µM | [2] > 100 µM | [3] > 100 µM | [4] 62.7 µM | [5] 17.5 µM | [6] > 100 µM | [7] > 100 µM | [8] > 100 µM | [9] 42.7 µM | [10] 30.8 µM | [11] 23.5 µM | [12] 43.2 µM | [13] 82.4 µM | [14] 26.2 µM | [15] 56.4 µM | [16] 36.1 µM

CS(=O)(=O)N(CCC#N)c1ccc(/C=N/NC(=O)CC(=O)Nc2cccc(Cl)c2)cc1
inactive: [1] > 100 µM | [2] > 100 µM | [3] > 100 µM | [4] > 100 µM | [5] > 100 µM | [6] > 100 µM | [7] > 100 µM | [8] > 100 µM | [9] > 100 µM | [10] > 100 µM | [11] > 100 µM | [12] > 100 µM | [13] > 100 µM | [14] > 100 µM | [15] > 100 µM | [16] > 100 µM
